Test results: US20080311036A1, “Imaging of Neural and Organ Injury or Damage” (UNIVERSITY OF FLORIDA RESEARCH FOUNDATION, INC., priority 2005, published 2008)

How the values were obtained:
[1] = in vivo half-life after intravenous administration
Procedure: To enhance the brain residency of the selected “inhibitor-ligands,” a pro-drug strategy that promotes the “trapping” of their precursors in the CNS are evaluated (Prokai et al., 2000). […] The following scheme outlines the method employed to the selected inhibitor-ligands (see FIG. 5).

calpain = assay: in situ calpain inhibition in SH-SY5Y cells challenged with maitotoxin, SBDP145 by Western blot; assay type: cell-based; details: SH-SY5Y neuroblastoma cells, maitotoxin 0.3 nM, read-out: IC50 for blocking SBDP145
Procedure: The synthesized promoiety-conjugates Compound 1 and Compound 2, will be tested for oxidation stability at 37° C. in buffer (pH 7.4), rat plasma and rat-brain homogenate to probe the kinetics of the expected conversion to the pyridinium-ion intermediates. […] Compound 1 for calpain and Compound 2 will be further tested in in situ calpain and caspase inhibition analysis in cell culture. This may be important since both proteases are intracellular, so for the in vivo uses of the inhibitor-ligands, compounds must have the ability to penetrate cells and retain potency while inside cells. We will use neuroblastoma cell line SH-SY5Y, which can be manipulated to produce calpain-activation and necrosis with a neurotoxin maitotoxin (0.3 nM, Calbiochem) or caspase activation and apoptosis with calcium-chelator EGTA (5 mM) as we have shown before (McGinnis, Wang, Gnegy, (1999) J. Neurochem. 72, 1853-1863). Importantly the protease-produced spectrin breakdown products SBDP150 and SBDP145 (with maitotoxin) and SBDP150 and SBDP120 (with EGTA) are readily produced and quantitatively detected by Western blot analysis, which parallel the formation of SBDP's in brain injury in vivo. Prototype calpain inhibitor SJA6017 blocked SBDP145 at IC50 of 0.2 μM, while caspase inhibitor z-D-DCB blocks SBDP120 at IC50 of 5 μM. […]

[2] = known calpain inhibitors; cited from earlier work

Structure (SMILES) | in vivo half-life [1] | IC50 (calpain) [nM] | crossing of cell membranes [2]
CC(C)C[C@@H](C=O)NC(=O)[C@@H](NS(=O)(=O)c1ccc(F)cc1)C(C)C [SJA-6017] | ca. 11 min | 200 | 
CC(=O)N[C@@H](CC(C)C)C(=O)N[C@@H](CC(C)C)C(=O)N[C@H](C=O)CCCNC(=N)N [leupeptin, N-acetyl-Leu-Leu-argininal] |  |  | cross cell membranes only poorly
